These results are taken from PMC9917862 (International Journal of Molecular Sciences, 2023).

“Also recorded” adds a separate entry of the source. Where two headings read alike, the source gives them in different places.

Series [1] has as its target T1, human serum albumin (HSA) (Homo sapiens, UniProt P02768).
T1 construct: purchased Sigma–Aldrich A8763
Kind of series: Ultrafiltration-UV-vis with HSA. Format: in vitro ADME. The note with it: for protein bound fraction: pH 7.4 (PBS), 25 °C.

Series [2] in a line: Proton dissociation constants by UV-vis titration. It counts as physicochemical. The procedure:
An Agilent Carry 8454 diode array spectrophotometer was used to obtain UV-vis spectra in the interval 190–1100 nm, the path length (l) was 1 cm. The spectrophotometric titrations were performed with samples containing 25–200 μM compound over the pH range 2.0–11.5 at an ionic strength of 0.10 M (KCl) and at 25 °C. Proton dissociation constants together with the individual molar absorbance spectra were calculated with the computer program PSEQUAD [52]. The program requires the following input data: measured spectra together with the corresponding pH and analytical (total) concentration of the compounds; species matrix, with approximate protonation constant(s) and the absorbing species need to be defined. The Newton–Raphson iterative method was used to obtain protonation constant(s) with standard deviations and molar spectra of the individual species.

Series [3] is described as follows: Calculated distribution of species in different protonation states. Format: physicochemical.
The target of series [4] is T2, α1-acid glycoprotein (AGP) (Homo sapiens, UniProt P02763).
T2 construct: purchased Sigma–Aldrich G9885
Kind of series: Steady-state fluorometry, quenching of AGP fluorescence. It counts as binding. The note with it: for quenching of the fluorescence of AGP: pH 7.4 (PBS), 25 °C.

The nature of series [5]: Proton dissociation constants by pH-potentiometry. It counts as physicochemical. The procedure: pH-potentiometric titrations of the antiviral agents were carried out similarly to our former works.
Series [6] deals with T3, HSA (Homo sapiens, UniProt P02768).
T3 construct: purchased Sigma–Aldrich A8763
Put plainly: Hydrolysis of MOLNU in the presence of HSA, 1H NMR. It counts as in vitro ADME. The note with it: HSA 630 μM; 1 mM MOLNU; PBS.

The nature of series [7]: physchem. Particulars: pH 2, thermodynamic from solid.
Series [8] concerns the target T4, HSA site II (Homo sapiens, UniProt P02768).
T4 construct: purchased Sigma–Aldrich A8763
Put plainly: Dansylglycine (DG) site marker displacement from HSA. It counts as binding.

For series [9], the target named is T5, HSA site I (Homo sapiens, UniProt P02768).
T5 construct: purchased Sigma–Aldrich A8763
Put plainly: Warfarin (WF) site marker displacement from HSA. Format: binding. The note with it: HSA-WF 1:1; pH 7.4 (PBS); 25 °C.

In series [10] the target is T6, human serum albumin (HSA), site I (Trp-214) (Homo sapiens, UniProt P02768).
T6 construct: purchased Sigma–Aldrich A8763
Kind of series: Steady-state fluorometry, quenching of HSA Trp-214 fluorescence. It counts as binding. Particulars: pH 7.4 (PBS), 25 °C.

The target of series [11] is T7, human transferrin (Homo sapiens, UniProt P02787).
T7 construct: purchased Sigma–Aldrich T3309
Put plainly: Hydrolysis of MOLNU in the presence of transferrin, 1H NMR. It counts as in vitro ADME. The note with it: 45 μM human transferrin; same behavior = no hydrolysis as with HSA.

Series [12] in a line: Aqueous stability of MOLNU followed by 1H NMR. It counts as physicochemical. The note with it: 25 °C; for hydrolyzed products: in 5 days. The protocol:
Molnupiravir, one of the title compounds, contains an ester functional group that may hydrolyze under certain conditions. Therefore, the aqueous stability of MOLNU was investigated as a first step at pH 2.0, 7.4, and 12.0 by ^1H NMR spectroscopy.
^1H NMR spectroscopic measurements were carried out on a Bruker Avance III HD instrument (Billerica, MA, USA). The spectra were recorded with WATERGATE water suppression pulse sequence using DSS internal standard and 10% (v/v) D2O. Aqueous stability of MOLNU was followed at pH 2.0, 7.4 and 12.0.

For series [13], the system named is human blood serum (HMM fraction). The note with it: pH 7.4.
The nature of series [14]: physchem. The note with it: pH 2, logD2.0.
The conditions of series [15]: cited from earlier work.
Series [16] is described as follows: physchem.
Series [17] addresses T2, α1-acid glycoprotein (AGP). Put plainly: Frontal analysis capillary electrophoresis (FACE) with AGP. It counts as binding. The note with it: pH 7.4 (PBS); 25 °C.
Series [18] has as its system HSA + AGP. Particulars: human, 200 μM, pH 7.4.
Series [19] is described as follows: Aqueous stability of FAVI and IMA followed by UV-vis spectra. Format: physicochemical. Particulars: pH 2 and 7.4; 25 °C.
The test system of series [20] is α1-acid glycoprotein (AGP). The note with it: human.
Series [21] in a line: physchem. This is another data set of the same source.
Series [22] concerns the target T1, human serum albumin (HSA). Put plainly: Frontal analysis capillary electrophoresis (FACE) with HSA. It counts as binding.
Series [23] addresses T2, α1-acid glycoprotein (AGP). Kind of series: Dipyridamole (DIP) displacement from AGP, fluorescence anisotropy. The note with it: cAGP = 2.0 μM; cDIP = 1.0 μM; pH 7.4 (PBS); 25 °C. Format: binding.
For series [24], the system named is human serum proteins. The note with it: cited from earlier work.
Series [25] deals with HSA (fatty acid free). Particulars: pH 7; cited from earlier work.
Series [26] has as its system AGP. Particulars: pH 4.95 (acetate), 25 °C, NMR spin-lattice relaxation times; cited from earlier work.
The test system of series [27] is AGP (native). The note with it: cited from earlier work.
In series [28] the test system is AGP. Particulars: pH 4.95 (acetate), 25 °C, ITC; cited from earlier work.
The test system of series [29] is AGP. The note with it: cited from earlier work.
Series [30] relates to AGP (F1-S). Particulars: pH 7.4 (ringer), 37 °C, circular dichroism; cited from earlier work.
Series [31] deals with plasma protein. Particulars: cited from earlier work.
Setting [32] is: pH 2.0, calculated from pKa values.
Setting [33] is: pH 7.4, calculated from pKa values.
Setting [34] is: pH 7.4, using pKa4 = 7.7 determined by Szakács et al. [48].

T2 sequence (P02763 19-201): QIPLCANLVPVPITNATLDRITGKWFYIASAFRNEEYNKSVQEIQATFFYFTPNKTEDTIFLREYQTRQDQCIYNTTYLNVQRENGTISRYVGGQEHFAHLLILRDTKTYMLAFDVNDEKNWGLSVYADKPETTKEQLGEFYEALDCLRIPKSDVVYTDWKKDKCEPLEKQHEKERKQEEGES
T6 sequence (P02768 25-609): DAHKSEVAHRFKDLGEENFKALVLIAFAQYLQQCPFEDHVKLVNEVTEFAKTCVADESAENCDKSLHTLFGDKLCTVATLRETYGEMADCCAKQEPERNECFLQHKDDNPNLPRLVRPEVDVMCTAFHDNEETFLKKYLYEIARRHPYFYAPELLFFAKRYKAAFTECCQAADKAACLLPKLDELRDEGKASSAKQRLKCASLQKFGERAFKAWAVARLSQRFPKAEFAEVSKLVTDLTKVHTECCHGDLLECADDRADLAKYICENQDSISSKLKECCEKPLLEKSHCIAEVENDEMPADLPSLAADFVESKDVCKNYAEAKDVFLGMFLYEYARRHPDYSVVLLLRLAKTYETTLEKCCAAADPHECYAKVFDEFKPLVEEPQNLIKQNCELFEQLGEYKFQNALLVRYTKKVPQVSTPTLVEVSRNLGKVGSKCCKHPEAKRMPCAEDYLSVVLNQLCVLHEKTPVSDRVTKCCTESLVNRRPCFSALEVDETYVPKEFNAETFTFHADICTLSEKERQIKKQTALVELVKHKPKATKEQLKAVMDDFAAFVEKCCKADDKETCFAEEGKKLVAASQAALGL
T1 sequence (P02768 25-609): as above
T4 sequence (P02768 25-609): as above
T3 sequence (P02768 25-609): as above
T5 sequence (P02768 25-609): as above
T7 sequence (P02787 20-698): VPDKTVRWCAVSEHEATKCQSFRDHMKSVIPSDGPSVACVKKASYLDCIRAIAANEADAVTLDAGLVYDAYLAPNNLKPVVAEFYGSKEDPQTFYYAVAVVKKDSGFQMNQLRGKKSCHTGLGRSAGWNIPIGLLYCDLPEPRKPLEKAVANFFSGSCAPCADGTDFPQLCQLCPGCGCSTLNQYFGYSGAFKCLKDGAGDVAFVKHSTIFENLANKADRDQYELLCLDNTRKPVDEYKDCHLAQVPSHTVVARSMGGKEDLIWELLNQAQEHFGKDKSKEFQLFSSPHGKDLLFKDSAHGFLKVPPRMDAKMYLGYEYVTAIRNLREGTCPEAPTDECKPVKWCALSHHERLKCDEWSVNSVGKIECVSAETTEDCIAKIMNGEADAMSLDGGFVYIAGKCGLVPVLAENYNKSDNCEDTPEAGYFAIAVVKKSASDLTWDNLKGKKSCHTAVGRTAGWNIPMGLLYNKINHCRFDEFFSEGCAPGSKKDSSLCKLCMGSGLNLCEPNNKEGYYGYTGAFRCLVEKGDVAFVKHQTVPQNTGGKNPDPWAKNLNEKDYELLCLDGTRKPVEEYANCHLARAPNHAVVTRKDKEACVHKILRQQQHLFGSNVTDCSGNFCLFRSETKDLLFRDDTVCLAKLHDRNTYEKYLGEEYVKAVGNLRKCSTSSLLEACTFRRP

For the compound `CC(C)C(=O)OC[C@H]1O[C@@H](n2ccc(NO)nc2=O)[C@H](O)[C@@H]1O` [MOLNU, molnupiravir], the protein bound fraction in [1] (HSA 630 μM, 30 μM compound) is under 2%; in series [13] (30 μM) it was “less than 2%”. In addition, the pKa in series [2] (pKa1 (UV-vis)) came out at 2.11; in [2] (pKa2 (UV-vis)), 10.3; in series [5] (pKa1 (pHm)), 2.14; in [5] (pKa2 (pHm)), 10.2. The “species H2L+” value in series [3] (setting [32]) is listed as 58%. For the same compound, the “species HL” value is on record as 42% in series [3] (setting [32]) and “HL: 100%” in series [3] (setting [33]). For the same compound, in series [4], the “quenching of the fluorescence of AGP” value is reported as “did not quench”. The “hydrolysis of MOLNU within two days” value was “Neither of the two media could induce hydrolysis; also recorded: could not hydrolyze the ester bond” in [6] and “The same behavior was observed” in series [11]. In series [7], this compound gave a solubility (thermodynamic) of at least 10 mM. In [8] (HSA-DG 1:1, pH 7.4 (PBS), 25 °C), the “displacement of DG from HSA site II” value was “could not displace DG”. Also, the “displacement of WF from HSA site I” value in series [9] was “no competition”. Also, the “quenching of HSA (Trp-214) fluorescence” value in [10] is on record as “did not significantly quench”. Further, the hydrolyzed products was 8% in series [12] (pH 2.0) and 2% in series [12] (pH 7.4). The “time within which MOLNU hydrolyzes completely to isobutyrate and EIDD-1931” value in series [12] (pH 12.0, cMOLNU = 1 mM) was at most 30 min. In series [14], the logD at 2 h is -0.68 ± 0.02.

For `CC(C)C(=O)O` [isobutyric acid], in series [15] (I = 0.1 M NaNO3), the pKa is 4.67.

As for `NC(=O)c1nc(F)c[nH]c1=O` [FAVI, favipiravir], the protein bound fraction in series [1] (HSA 50 μM, 50 μM compound, IMA corrected for 85% filter adhesion) is reported as under 2%; in [1] (HSA 630 μM, 200 μM compound), under 2%; in [18] it was 2 ± 1%; in series [20] (25 μM), under 2%; in [20] (50 μM), under 2%; in series [20] (100 μM) it was under 2%. In addition, the protein bound fraction in series [20] (200 μM) is on record as under 2%; in [13] (200 μM), 22 ± 2%. Moreover, the bound fraction entry in series [1] (different concentrations of HSA) and in series [20] was “less than 2%” each time. Besides, the pKa worked out at 5.17 in series [16], 5.08 in series [2] (pKa1 (UV-vis)), 5.11 in series [5] (pKa1 (pHm)) and 5.1 in series [21]. In addition, the “binding to AGP in FACE” value in series [17] was “neither of the two proteins are involved in binding of FAVI”. The “species L−” value in series [3] (setting [33]) is on record as “L^−:100%”. The “quenching of the fluorescence of AGP” value is on record as 6% in series [4] (91 equiv. of compound) and “did not quench” in series [4]. In [19], the “stable in aqueous media at least for” value is given as at least 30 h. Also, the thermodynamic solubility in series [7] was at least 10 mM. For the same compound, the “displacement of WF from HSA site I” value in [9] was “no competition”. The “quenching of HSA (Trp-214) fluorescence” value in [10] is reported as “did not significantly quench”; in series [10] (listed as Favipiravir), “did not quench”. Also, the “binding to HSA in FACE” value in series [22] (up to 5 equiv. albumin, pH 7.4 (PBS), 25 °C) is “neither of the two proteins are involved in binding of FAVI”. The compound further returned a logD at 2 h in [14] of 0.15. Further, the “displacement of DIP from AGP” value in series [23] is recorded as “no interaction between the studied species takes place”. Further, the “binding attributed to AGP” value in series [24] is 6.5%. Further, the “binding attributed to HSA” value in [24] is 65%.

With `Cc1ccc(NC(=O)c2ccc(CN3CCN(C)CC3)cc2)cc1Nc1nccc(-c2cccnc2)n1` [IMA, imatinib], the pKa in [2] (I = 0.1 M (KCl), 25 °C, read-out: pKa1 (UV-vis)) was 1.72; in series [5] (I = 0.1 M (KCl), 25 °C, read-out: pKa2 (pHm)), 3.06; in series [5] (I = 0.1 M (KCl), 25 °C, read-out: pKa3 (pHm)), 3.86; in [5] (I = 0.1 M (KCl), 25 °C, read-out: pKa4 (pHm)), over 7; in series [21], 7.9. Besides, the “K′” value in series [25] is listed as 1.2 × 10^5 1.0 × 10^5; in series [27] (pH 7.4) it was 2.4 × 10^6 1.7 × 10^6; in series [28], 8.7 × 10^2. The “species H2L2+” value in [3] (setting [32]) is recorded as “H2L^2+: 5%”. For the same compound, in series [3] (setting [32]), the “species H3L3+” value is 62%. Besides, the “species H4L4+” value in [3] (setting [32]) was 33%. The “species HL+” value in [3] (setting [33]) is reported as 76%; in series [3] (setting [34]), 67%. The “species L” value in [3] (setting [34]) was 33%. For the same compound, the “logK′” value is given as 3.51 in series [26]; 6.38 in series [27] (AGP (native), pH 7.4 (ringer), 37 °C, circular dichroism); 2.94 in series [28]; 6.69 in series [29]; 6.23 in [30]. The “ΔlogK′, effect of long-term storage of AGP in plastic microtubes” value in [4] was 0.2. The “stable in aqueous media at least for” value in [19] is on record as at least 30 h. Moreover, the “displacement of DG from HSA site II” value in [8] (pH 7.4) is on record as “unable to displace DG”. In addition, in [22] (pH 7.4), the “binding to HSA in FACE” value is recorded as “no considerable binding”. In addition, in [15] (pH-potentiometry, I = 0.15 M NaCl, ref 48 (Szakács et al.)), the pKa4 is given as 7.7.

As for `O=c1nc(NO)ccn1[C@@H]1O[C@H](CO)[C@@H](O)[C@H]1O` [EIDD-1931, N(4)-hydroxycytidine], the plasma protein binding entry in series [31] was “No plasma protein binding was observed”.
